Values quoted from earlier work, collected in US20260130395A1, “Water Dispersible Botanical Compositions” (Aquila Black Limited, priority 2021, published 2026).

Target: T1, 5-HT3 serotonin receptor (Homo sapiens, UniProt P46098)
T1 sequence (P46098 24-478): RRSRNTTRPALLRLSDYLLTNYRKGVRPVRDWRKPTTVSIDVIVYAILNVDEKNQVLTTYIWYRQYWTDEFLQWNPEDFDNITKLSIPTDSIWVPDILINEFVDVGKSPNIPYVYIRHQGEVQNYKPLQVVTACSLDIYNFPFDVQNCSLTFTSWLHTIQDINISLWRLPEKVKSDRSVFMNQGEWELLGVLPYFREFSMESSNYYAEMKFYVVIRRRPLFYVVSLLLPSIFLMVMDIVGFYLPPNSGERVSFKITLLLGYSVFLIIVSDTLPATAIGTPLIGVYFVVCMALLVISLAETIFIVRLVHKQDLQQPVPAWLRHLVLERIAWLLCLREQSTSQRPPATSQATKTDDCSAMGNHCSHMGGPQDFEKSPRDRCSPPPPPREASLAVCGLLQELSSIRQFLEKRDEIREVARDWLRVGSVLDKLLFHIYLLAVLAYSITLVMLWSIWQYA
Settings: Nebrisi et al. 2020, Front. Pharmacol. 11:1274; cited from earlier work

COc1cc(CNC(=O)CCCC/C=C/C(C)C)ccc1O [capsaicin]
mode of action at the 5-HT3 serotonin receptor: negative allosteric modulator
